Assay results as given in patent US5369016A, “Peptide amidase and the use thereof” (Forschungszentrum Juelich GmbH, priority 1990, dated 1994).
Like-named read-outs stand apart in the source and are kept apart here. Blank lines part the entries; values can stand above or below the molecule they belong to. Square brackets hold non-standard residues; d marks the D form. Peptide text beside a SMILES is read from it. * marks the point of attachment. Cbz = O=C(OCc1ccccc1)*

Columns and labels:
peptide amidase [1] = experiment: Deamidation of N-terminal protected amino acid amides; format: biochemical, orange
Description: Separating conditions according to Example 3A were employed.
Eluent: TBA/acetonitrile 65:35 (90:10 for Bz-Arg-NH2)
Reaction conditions: 10 mM substrate; 50 μg.ml peptide amidase; 50 mM
tris/HCl; pH 7.0; Temperature 30° C.

peptide amidase [2] = experiment: Effect of the acetone concentration on kinetic parameters Km and Vmax; format: biochemical, orange
Description: Substrate: Z--Gly--Tyr--NH2; 40 μg/ml peptide amidase in 50 mM

peptide amidase [3] = experiment: Effect of chelating agents, metal cations and enzyme inhibitors on peptide amidase activity; format: biochemical, navel oranges
Description: The effect of the following inhibitors on peptide amidase activity was determined under standard conditions according to the methods described in Example 1. The inhibitor concentration was 10 mM in each case.

peptide amidase [4] = experiment: Enzymatic cleavage of N-terminal protected dipeptide amides; format: biochemical, orange; conditions: peptide amidase
Source text: The results in Table 7 were obtained using an eluent: TBA/acetonitrile 60/40 (% volume)

peptide amidase [5] = experiment: Enzymatic reaction of peptide amides with a chain length of greater than three amino acids; format: biochemical, orange
Description: Enzymatic reaction of peptide amides with a chain length of greater than
three amino acids. Reaction conditions: 10 mM substrate, 40 μg/ml
50 mM tris/HCL, pH 7.0, temp. 30° C.

peptide amidase [6] = experiment: Deamidation of tripeptides containing D-amino acids (stereospecificity); format: biochemical, orange; conditions: 12 h
Description: Column: RP 18, 0.1 ml/min
Eluent: Solution of TBA (tetrabutylammonium hydrogen sulfate) and […]

[7] = system: peptide amidase purified from orange flavedo; experiment: Cleavage of peptide amides with free N termini and of side chain amides; format: biochemical; conditions: amides of amino acid side chains (Asn; Gln); amino acid analyzer; 10000 µM
Description: Enzyme activity measured for the deamidation of dipeptide amides with free N termini (e.g. H-Tyr-Arg-NH2) was considerably higher than for peptide amides with an aromatic protective group, such as Z- or Bz-. Activity levels were up to 100 times higher than those measured with protected peptide amides.
Amides of amino acid side chains (Asn; Gln) Analysis
Eluent (HPLC): TBA/acetonitrile 95/5 or 96/4(*)
Reaction conditions: 10 mM substrate; 50 μg/ml peptide amidase; 50 mM
tris/HCl; pH 7.0; temperature 30° C.

peptide amidase [8] = experiment: Continuous deamidation of H-Tyr-Arg-NH2 in an enzyme membrane reactor (EMR); format: biochemical, orange; conditions: 20 mM substrate, residence time 30 minute, enzyme 0.15 mg/ml
Description: A continuous process for deamidation of H-Tyr-Arg-NH2 was carried out in an EMR. The conditions for operating the EMR (corresponding to a continuously operated stirred vessel reactor) permitted a more economic utilization of the enzyme because the enzyme was removed by ultrafiltration before the product was purified. The process was carried out under the following conditions: […]

[9] = system: peptide amidase from orange flavedo; experiment: Cleavage of amides of amino acids (TLC); format: biochemical; design: scale not given here; conditions: 50 μg/ml; 10 mM substrate; 24 h; 0.05M KPi, pH 7.5; * = slight traces
Description: A DEAE-purified enzyme was employed in these experiments (volumetric activity: 40 U/ml for the substrate For-Tyr-Arg-NH2).
from orange flavedo. (50 μg/ml; 10 mM substrate)
Eluent: pyridine/butanol/AcOH/H2 O (12:15:3:5).
Reaction: 24 h, RT; 0.05M KPi, pH 7.5., 30° C.
Blank sample without enzyme.

peptide amidase [10] = experiment: Effect of organic solvents on enzyme stability; format: biochemical, orange; conditions: 27.8% solvent, 30° C.; acetone, acetonitrile, DMF, ethanol compared
Description: Ten identical mixtures of the following composition:
50 μl of enzyme solution (40 μg of protein/mixture)
were incubated at 30° C. At various times, the reaction was initiated by the addition of substrate (Z-Gly-Tyr-NH2 in 100 μl of buffer/solvent 1:1, corresponding to 10 mM/mixture) and the activity was measured.

[11] = Comparison of the activity of peptide amidase and CPD-Y (pH-stat); format: biochemical; conditions: for Amino-acid amidase activity (percent) / Amino-acid amidase activity (yes/no): strength varies depending on the amide of the amino acid
Description: The enzyme has neither peptidase activity nor amino acid amidase activity, as is evident from the results presented in Table 1 comparing the activities of a purified peptide amidase to carboxypeptidase Y in both its native and modified form.
Comparison of the activity of peptide amidase and CPD-Y;
Conditions for the determination of peptide amidase activity:
30 mM of different substrates, pH 9, 22° C., pH-stat
For the purposes of this disclosure, specific activity is defined as follows: 1 U/mg of enzyme can convert 1 μmol of substrate per minute.

[12] = inhibitor 0.01 m (10 mM), standard conditions of Example 1
[13] = peptide amidase, 6 h, 10000 µM, pH 7
[14] = 10 mM substrate, 40 μg/ml peptide amidase, 50 mM tris/HCL, pH 7.0, 30° C., 360 min

- Spec. Activity (peptide amidase [1]; 10 mM substrate, 50 μg.ml peptide amidase, 50 mM tris/HCl, pH 7.0, 30° C.): 4.39 U/mg
- Yield (peptide amidase [1]; 10 mM substrate, 50 μg.ml peptide amidase, pH 7.0, 30° C., 28 min): 61.6 %/28 min
- Yield (peptide amidase [1]; 10 mM substrate, 50 μg.ml peptide amidase, pH 7.0, 30° C., 120 min): 100 %/2 h
- Yield after 45 min (peptide amidase [1]; peptide amidase, pH 7, 10000 µM): 73.5%
- variation of Km and Vmax with solvent concentration (in words) (peptide amidase [2]): did not vary significantly
Molecule: N=C(N)NCCC[C@H](NC(=O)c1ccccc1)C(N)=O [Bz--Arg--NH2]

Molecule: N[C@@H]1CON=C1O [Cycloserine]
- % activity remaining (peptide amidase [3]; [12]): 100%

- Yield (peptide amidase [4]): 90%
- Yield (peptide amidase [5]; [13]): 100 %/6 h
Molecule: CC(C)C[C@H](NC(=O)[C@@H]1CCCN1C(=O)OCc1ccccc1)C(=O)NCC(N)=O [Z--Pro--Leu--Gly--NH2] (Cbz-Pro-Leu-Gly-NH2)

Molecule: NCC(=O)N[C@H](Cc1ccccc1)C(=O)N[C@@H](Cc1ccc(O)cc1)C(N)=O [H--Gly--D-Phe--Tyr--NH2] (H-Gly-[dF]-Tyr-NH2)
- Conversion (peptide amidase [6]): 100 %/12 hours

Molecule: H--Ala--Asn
- Conversion [7]: 0%

Molecule: Luteinizing Hormone Releasing Factor [LHRH]
- Yield (peptide amidase [5]; [14]): 90 %/6 h

Molecule: N=C(N)NCCC[C@H](NC(=O)[C@@H](N)Cc1ccc(O)cc1)C(N)=O [Tyr--Arg--NH2, H-Tyr-Arg-NH2]
- Mean conversion (peptide amidase [8]): 92%

Molecule: CCN1C(=O)C=CC1=O [EMI, ethylmaleimide]
- % activity remaining (peptide amidase [3]; [12]): 100%

Molecule: CC(C)C[C@H](NC(=O)[C@H](Cc1ccccc1)NC(=O)CNC(=O)CNC(=O)[C@@H](N)Cc1ccc(O)cc1)C(N)=O [H--Tyr--Gly--Gly--Phe--Leu--NH2, Leu-Enkephalin]
- Yield (peptide amidase [5]; [14]): 100 %/6 h

Molecule: O=C(O)CN(CCN(CC(=O)O)CC(=O)O)CC(=O)O [EDTA, ethylenedinitrilotetraacetic acid]
- % activity remaining (peptide amidase [3]): 92%

Molecule: O=C(O)c1cc[c]([Hg][OH])cc1 [p-OHMBA, parahydroxymercuribenzoate]
- % activity remaining (peptide amidase [3]; [12]): 96%

Molecule: C[C@@H]1C[C@@H]([C@H](O)CC2CC(=O)NC(=O)C2)C(=O)[C@@H](C)C1 [Cycloheximide]
- % activity remaining (peptide amidase [3]; [12]): 98%

- Yield (peptide amidase [4]): 100%
- Yield (peptide amidase [5]; [13]): 100 %/6 h
Molecule: CC(C)C[C@H](NC(=O)CNC(=O)CNC(=O)OCc1ccccc1)C(N)=O [Z--Gly--Gly--Leu--NH2] (Cbz-Gly-Gly-Leu-NH2)

- Yield (peptide amidase [5]; [13]): 0 %/6 h
Molecule: CC(C)[C@H](NC(=O)OCc1ccccc1)C(=O)NCC(=O)N[C@@H](C)C(=O)N1CCC[C@H]1C(N)=O [Z--Val--Gly--Ala--Pro--NH2] (Cbz-VGAP-NH2)

- Yield (peptide amidase [5]; [13]): 100 %/6 h
Molecule: N=C(N)NCCC[C@H](NC(=O)[C@@H]1CCCN1C(=O)OCc1ccccc1)C(=O)NCC(N)=O [Z--Pro--Arg--Gly--NH2] (Cbz-Pro-Arg-Gly-NH2)

Molecule: NCC(=O)N[C@@H](Cc1ccccc1)C(=O)N[C@H](Cc1ccccc1)C(N)=O [H--Gly--Phe--D-Phe--NH2] (H-Gly-Phe-[dF]-NH2)
- Conversion (peptide amidase [6]): 0 %/12 hours

Molecule: NNC(N)=O [Semicarbazide]
- % activity remaining (peptide amidase [3]; [12]): 102%

Molecule: [Cl][Hg][Cl] [HgCl2]
- % activity remaining (peptide amidase [3]; [12]): 95%

Molecule: H--Leu--Arg--Asn
- Conversion [7]: 0%

Molecule: Boc--cys(bzl)--Pro--Arg--Gly--NH2
- Yield (peptide amidase [5]; [14]): 90 %/6 h

Molecule: O=S(=O)(F)Cc1ccccc1 [PMSF, phenylmethanesulfonyl fluoride]
- inhibition of peptide amidase (in words) (peptide amidase [3]): significantly inhibited
- % activity remaining (peptide amidase [3]; [12]): 55%
- inhibition of peptide amidase (in words) (peptide amidase [3]; listed as phenylmethanesulfonyl fluoride): weak inhibition

- Reaction [9]: 0
Molecule: NC(=O)[C@@H](N)Cc1ccccc1 [Phe--NH2]

- Yield (peptide amidase [4]): 95%
- Yield (peptide amidase [5]; [13]): 100 %/6 h
Molecule: CC(C)C[C@H](NC(=O)CNC(c1ccccc1)(c1ccccc1)c1ccccc1)C(=O)N[C@H](C(N)=O)C(C)C [Trt--Gly--Leu--Val--NH2]

Molecule: H--Ala--Gln
- Conversion [7]: 0%

- Reaction [9]: 0
Molecule: CC[C@H](C)[C@H](N)C(N)=O [Ile--NH2]

Molecule: C[C@@H](NC(=O)[C@@H]1CCCN1C(=O)[C@@H](N)CCCNC(=N)N)C(N)=O [H--Arg--Pro--D-Ala--NH2] (H-Arg-Pro-[dA]-NH2)
- Conversion (peptide amidase [6]): 0 %/12 hours

Molecule: NCC(=O)O [Glycine]
- % activity remaining (peptide amidase [3]): 99%

Molecule: O[C@H](CS)[C@H](O)CS (racemic) [Dithiothreitol]
- % activity remaining (peptide amidase [3]; [12]): 100%

Molecule: CN(C)C=O [DMF, dimethylformamide]
- decrease in enzyme activity on incubation with solvent (in words) (peptide amidase [10]): smallest decrease in enzyme activity

Molecule: [N-]=[N+]=[N-].[Na+] [NaN3]
- % activity remaining (peptide amidase [3]; [12]): 100%

Molecule: NC(=O)CI [Iodoacetamide]
- % activity remaining (peptide amidase [3]; [12]): 99%

- Yield (peptide amidase [5]; [13]): 100 %/6 h
Molecule: N=C(N)NCCC[C@H](NC(=O)[C@@H]1CCCN1)C(=O)NCC(N)=O [H--Pro--Arg--Gly--NH2] (H-Pro-Arg-Gly-NH2)

- Yield (peptide amidase [4]): 100%
- Vmax (peptide amidase [2]; 5% acetone): 2.93 U/mg
- Km (peptide amidase [2]; 5% acetone, 40 μg/ml peptide amidase, pH 7.5): 0.063 mM
- Km (peptide amidase [2]; 20% acetone): 1.6 mM
- Vmax (peptide amidase [2]; 20% acetone): 2.54 U/mg
- Km (peptide amidase [2]; 40% acetone): 5.5 mM
- Vmax (peptide amidase [2]; 40% acetone): 2.57 U/mg
- Km (peptide amidase [2]; 60% acetone): 19.6 mM
- Vmax (peptide amidase [2]; 60% acetone): 2.58 U/mg
Molecule: NC(=O)[C@H](Cc1ccc(O)cc1)NC(=O)CNC(=O)OCc1ccccc1 [Z--Gly--Tyr--NH2, benzyloxycarbonyl-glycyltyrosinamide] (Cbz-Gly-Tyr-NH2)

B1: Carboxypeptidase Y [CPD-Y (native)] (protein, UniProt P00729 112-532, looked up)
Carboxypeptidase Y: KIKDPKILGIDPNVTQYTGYLDVEDEDKHFFFWTFESRNDPAKDPVILWLNGGPGCSSLTGLFFELGPSSIGPDLKPIGNPYSWNSNATVIFLDQPVNVGFSYSGSSGVSNTVAAGKDVYNFLELFFDQFPEYVNKGQDFHIAGESYAGHYIPVFASEILSHKDRNFNLTSVLIGNGLTDPLTQYNYYEPMACGEGGEPSVLPSEECSAMEDSLERCLGLIESCYDSQSVWSCVPATIYCNNAQLAPYQRTGRNVYDIRKDCEGGNLCYPTLQDIDDYLNQDYVKEAVGAEVDHYESCNFDINRNFLFAGDWMKPYHTAVTDLLNQDLPILVYAGDKDFICNWLGNKAWTDVLPWKYDEEFASQKVRNWTASITDEVAGEVKSYKHFTYLRVFNGGHMVPFDVPENALSMVNEWIHGGFSL
- Peptidase activity [11]: yes
- Specific activity ([11]; 30 mM of different substrates, pH 9, 22° C., pH-stat): 0.0082 U/mg protein
- Amino-acid amidase activity (percent) [11]: 0-92%
- Amino-acid amidase activity (yes/no) [11]: yes

B2: Carboxypeptidase Y [CPD-Y (modified)] (protein, UniProt P00729 112-532, looked up)
Carboxypeptidase Y: B1 Carboxypeptidase Y
modifications: chemically modified
notes: carboxypeptidase Y in a chemically modified form
- Amino-acid amidase activity (percent) [11]: 0-77%
- Amino-acid amidase activity (yes/no) [11]: yes
